Experimental data as given in patent US6461997B1, “Triazole sulfones having herbicidal activity” (Monsanto Technology LLC, priority 1999, dated 2002).

Key:
AMARE (redroot pigweed) = experiment: Pre-emergence herbicidal activity, warm season; assay type: in vivo, Amaranthus retroflexus; conditions: GR80 = lowest tested rate (300, 100, 30, 10 g/ha) with 80% or greater inhibition; approx. 14 days after treating; 30/21° C.
Method in brief: (§1)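 Seeds sown in sterilised fertilised topsoil received surface-applied compound in 50:50 acetone/water, typically at 300, 100, 30 and 10 g/ha, then greenhouse-grown at 30/21° C (warm-season species) or 18/13° C (cool-season species). Percent inhibition versus untreated plants was scored at about 14 days, giving GR80; an asterisk marks activity short of 80% at the top rate.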

SORVU (shattercane) = experiment: Pre-emergence herbicidal activity, warm season; assay type: in vivo, Sorghum vulgare; conditions: GR80 = lowest tested rate (300, 100, 30, 10 g/ha) with 80% or greater inhibition; approx. 14 days after treating; 30/21° C.
Method in brief: as §1

DIGSA (large crabgrass) = experiment: Pre-emergence herbicidal activity, warm season; assay type: in vivo, Digitaria sanguinalis; conditions: GR80 = lowest tested rate (300, 100, 30, 10 g/ha) with 80% or greater inhibition; approx. 14 days after treating; 30/21° C.
Method in brief: as §1

[1] = tested on: CHEAL (common lambsquarters); experiment: Pre-plant incorporated (PPI) herbicidal activity, warm season; assay type: in vivo, Chenopodium album; conditions: PPI application
Method in brief: (§2)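 Compound-laden cover soil (organic solvent spray, mixed in) over seeds; 0.64 cm overhead water initially. Evaluated ~14 days: % inhibition relative to untreated.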

[2] = tested on: PANMI (wild proso millet); experiment: as above; assay type: in vivo, Panicum miliaceum; conditions: PPI application
Method in brief: as §2

SETFA (giant foxtail) = experiment: as above; assay type: in vivo, Setaria faberi; conditions: PPI application
Method in brief: as §2

[3] = tested on: BRAPP (broadleaf signalgrass); experiment: as above; assay type: in vivo, Brachiaria platyphylla; conditions: PPI application
Method in brief: as §2

SINAR (wild mustard) = experiment: Pre-plant incorporated (PPI) herbicidal activity, cool season; assay type: in vivo, Sinapis arvensis; conditions: weed, PPI application
Method in brief: as §2

[4] = tested on: AGRRE (quackgrass (seedling)); experiment: as above; assay type: in vivo, Elymus repens; conditions: weed, PPI application
Method in brief: as §2

wheat (TRZAW) = experiment: Selectivity test, PPI, cool season crop; assay type: in vivo, Triticum aestivum; conditions: PPI application
Method in brief: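 Pre-plant incorporated: compound in organic solvent sprayed onto cover soil, mixed and laid over seeds; untreated soil for controls. Greenhouse after treatment: warm season 30/21° C., cool season 18/13° C. day/night. Percent inhibition versus untreated plants scored about 14 days after planting.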

CCN(CC)C(=O)n1cnc(S(=O)(=O)C(F)(F)SC)n1 [Example 9]
Pre-emergence activity (GR80) AMARE (AMARE (redroot pigweed)): 300 g/ha | Pre-emergence activity (GR80) SORVU (SORVU (shattercane)): 300 g/ha | Pre-emergence activity (GR80) DIGSA (DIGSA (large crabgrass)): 100 g/ha | Percent inhibition CHEAL ([1]; 30 g/ha): 95% | Percent inhibition CHEAL ([1]; 100 g/ha): 100% | Percent inhibition CHEAL ([1]; 300 g/ha): 100% | Percent inhibition CHEAL ([1]; 900 g/ha): 100% | Percent inhibition PANMI ([2]; 30 g/ha): 60% | Percent inhibition PANMI ([2]; 100 g/ha): 80% | Percent inhibition PANMI ([2]; 300 g/ha): 100% | Percent inhibition PANMI ([2]; 900 g/ha): 100% | Percent inhibition SETFA (SETFA (giant foxtail); 30 g/ha): 95% | Percent inhibition SETFA (SETFA (giant foxtail); 100 g/ha): 100% | Percent inhibition SETFA (SETFA (giant foxtail); 300 g/ha): 100% | Percent inhibition SETFA (SETFA (giant foxtail); 900 g/ha): 100% | Percent inhibition BRAPP ([3]; 30 g/ha): 70% | Percent inhibition BRAPP ([3]; 100 g/ha): 80% | Percent inhibition BRAPP ([3]; 300 g/ha): 100% | Percent inhibition BRAPP ([3]; 900 g/ha): 100% | Percent inhibition SINAR (SINAR (wild mustard); 30 g/ha): 100% | Percent inhibition SINAR (SINAR (wild mustard); 100 g/ha): 100% | Percent inhibition SINAR (SINAR (wild mustard); 300 g/ha): 70% | Percent inhibition SINAR (SINAR (wild mustard); 900 g/ha): 100% | Percent inhibition AGRRE ([4]; 30 g/ha): 0% | Percent inhibition AGRRE ([4]; 100 g/ha): 70% | Percent inhibition AGRRE ([4]; 300 g/ha): 80% | Percent inhibition AGRRE ([4]; 900 g/ha): 100% | Percent inhibition TRZAW (wheat (TRZAW); 30 g/ha): 0% | Percent inhibition TRZAW (wheat (TRZAW); 100 g/ha): 0% | Percent inhibition TRZAW (wheat (TRZAW); 300 g/ha): 10% | Percent inhibition TRZAW (wheat (TRZAW); 900 g/ha): 70%
